The text below walks through data of patent US20090203577A1 (EXELIXIS, INC., priority 2005, published 2009).

Data set [1] addresses T1, human farnesoid X receptor (Homo sapiens, UniProt Q96RI1).
T1 construct: CMX-farnesoid X receptor (full length human farnesoid X receptor); expressed in transfected cells; host or cells: CV-1 African Green Monkey Kidney cells
T1 sequence (Q96RI1 1-472 isoform Q96RI1-2): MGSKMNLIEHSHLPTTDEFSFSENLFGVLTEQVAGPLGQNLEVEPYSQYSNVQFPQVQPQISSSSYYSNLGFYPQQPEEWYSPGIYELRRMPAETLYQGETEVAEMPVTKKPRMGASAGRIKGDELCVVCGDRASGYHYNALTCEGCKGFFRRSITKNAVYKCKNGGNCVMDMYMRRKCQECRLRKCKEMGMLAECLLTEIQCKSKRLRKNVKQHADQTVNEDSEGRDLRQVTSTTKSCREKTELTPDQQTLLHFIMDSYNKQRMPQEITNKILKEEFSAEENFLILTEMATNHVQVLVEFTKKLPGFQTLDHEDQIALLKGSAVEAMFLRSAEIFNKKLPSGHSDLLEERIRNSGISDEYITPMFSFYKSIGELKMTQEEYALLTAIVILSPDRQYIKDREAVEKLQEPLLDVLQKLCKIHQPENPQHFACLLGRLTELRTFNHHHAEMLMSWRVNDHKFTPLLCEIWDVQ
T1 sequence (P19793 1-462 partner): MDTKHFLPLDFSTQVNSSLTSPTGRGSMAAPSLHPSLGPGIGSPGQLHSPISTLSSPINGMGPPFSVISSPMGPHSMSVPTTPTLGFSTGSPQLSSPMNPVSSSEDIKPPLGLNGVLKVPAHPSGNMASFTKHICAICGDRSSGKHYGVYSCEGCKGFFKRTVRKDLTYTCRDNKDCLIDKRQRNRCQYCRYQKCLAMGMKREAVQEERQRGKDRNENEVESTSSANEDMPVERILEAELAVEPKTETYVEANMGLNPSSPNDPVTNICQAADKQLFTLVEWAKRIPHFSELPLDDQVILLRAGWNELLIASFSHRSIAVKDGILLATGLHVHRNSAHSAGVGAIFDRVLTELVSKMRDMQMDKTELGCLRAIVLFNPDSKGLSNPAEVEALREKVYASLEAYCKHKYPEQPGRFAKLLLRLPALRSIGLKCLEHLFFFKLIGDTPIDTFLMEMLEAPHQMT
Kind of data set: FXR in vitro assays (farnesoid X receptor/ECREx7 co-transfection assay, TR-FRET assay), Table I. The note with it: for Emax: read-out: % Efficacy. Type of data set: cell-based. A digest of the protocol: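 CV-1 monkey kidney cells transfected for an FXR/ECREx7 luciferase co-transfection reporter; luciferase read 18-20 h later in lysates. 8-point dose-response at ½-log spacing, 4 wells per point; EC50/IC50 from four-parameter Hill fit, averaged over at least 3 independent experiments.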
On the technique in general: TR-FRET usually uses a lanthanide donor and a delayed reading to cut background.

The nature of a further data set: physchem. As to conditions: pH 7.4, aqueous buffer, kinetic from dmso stock. The protocol: The kinetic solubility of test compounds in buffer was evaluated using a 96 well filtration plate format. A 500 μM assay solution in PBS, pH7.4 (or other assay buffer, as needed) was generated form a DMSO stock solution (up to 10 mM). Samples were transferred to a 96 Millipore MultiScreen HTS 96-well Filter plate (Cat# MSSLBPC10) mixed by shaking for 1.5 hours and processed by filtration prior to quantitation by HPLC-UV. Amiodarone and testosterone were used as reference controls.

Setting [2] is: agonist activity, one or more of the in vitro assays, read-out: EC50.

Converted amounts (≈) assume the structure as drawn. Like-named read-outs stand apart in the source and are kept apart here.

For orientation: EC50 means the concentration needed to bring the measured effect to its halfway point. The term solubility (kinetic) denotes solubility judged after dilution from a stock solution rather than from solid.

Regarding `CC(C)OC(=O)C1=CN(C(=O)N2CCC[C@@H](CN(C)C)C2)CC(C)(C)c2c1[nH]c1ccccc21` [Example 50, 1-methylethyl 3-({(3S)-3-[(dimethylamino)methyl]piperidin-1-yl}carbonyl)-1,1-dimethyl-1,2,3,6-tetrahydroazepino[4,5-b]indole-5-carboxylate], in data set [1] (setting [2]), the EC50 was in the range of 1000 to 10000 nM. The Emax in data set [1] fell in the range of 60 to 80%. For the same compound, the kinetic solubility at 1.5 h in “physchem” is greater than 10 µM.

As for `CC(C)OC(=O)C1=CN(C(=O)N2CCC[C@H](CN(C)C)C2)CC(C)(C)c2c1[nH]c1ccccc21` [Example 51, 1-methylethyl 3-({(3R)-3-[(dimethylamino)methyl]piperidin-1-yl}carbonyl)-1,1-dimethyl-1,2,3,6-tetrahydroazepino[4,5-b]indole-5-carboxylate], in data set [1] (setting [2]), the EC50 is 1000 to 10000 nM. Besides, the Emax in data set [1] is greater than 100%. Also, the solubility (kinetic) at 1.5 h in the data set “physchem” was greater than 10 µM.

With `CC(C)OC(=O)C1=CN(C(=O)N2CCCC(CN3CCOCC3)C2)CC(C)(C)c2c1[nH]c1ccccc21` (stereo not drawn) [Example 53, 1-methylethyl 1,1-dimethyl-3{[3-(morpholin-4-ylmethyl)piperidin-1-yl]carbonyl}-1,2,3,6-tetrahydroazepino [4,5-b]indole-5-carboxylate], in data set [1] (setting [2]), the EC50 lay in the range of 100 to 1000 nM. Besides, the Emax in data set [1] was greater than 100%. The solubility (kinetic) at 1.5 h in the data set “physchem” is greater than 10 µM.

With `CC(C)OC(=O)C1=CN(C(=O)N[C@H]2CCCNC2)CC(C)(C)c2c1[nH]c1ccccc21` [Example 54, 1-mcthylethyl 1,1-dimethyl-3-{[(3S)-piperidin-3-ylamino]carbonyl}-1,2,3,6-tetrahydroazepino[4,5-b]indole-5-carboxylate], the EC50 in data set [1] (setting [2]) lay in the range of 1000 to 10000 nM. Further, the Emax in data set [1] fell in the range of 40 to 60%. This compound also had a kinetic solubility at 1.5 h in the data set “physchem” greater than 10 µM.

In the case of `CC(C)OC(=O)C1=CN(C(=O)NC2CCCNC2)CC(C)(C)c2c1[nH]c1ccccc21` (stereo not drawn) [Example 56, 1-methylethyl 1,1-dimethyl-3-[(piperidin-3-ylamino)carbonyl]-1,2,3,6-tetrahydro azepino[4,5-b]indole-5-carboxylate], the EC50 in data set [1] (setting [2]) was 1000 to 10000 nM. For the same compound, the Emax in data set [1] is less than 40%. Besides, the solubility (kinetic) at 1.5 h in “physchem” is greater than 10 µM.

As for `CC(C)OC(=O)C1=CN(C(=O)N2CCC[C@H](CN3CCOCC3)C2)CC(C)(C)c2c1[nH]c1ccccc21` [Example 57, 1-methylethyl 1,1-dimethyl-3-{[(3R)-3-(morpholin-4-ylmethyl)piperidin-1-yl]carbonyl}-1,2,3,6-tetrahydroazepino [4,5-b]indole-5-carboxylate], the EC50 in data set [1] (setting [2]) was 1000 to 10000 nM. The Emax in data set [1] was greater than 100%. For the same compound, in the data set “physchem”, the solubility (kinetic) at 1.5 h was greater than 10 µM.

As to `CC(C)OC(=O)C1=CN(C(=O)N2CCC[C@H](CN3CCCCC3)C2)CC(C)(C)c2c1[nH]c1ccccc21` [Example 58], the EC50 in data set [1] (setting [2]) was in the range of 1000 to 10000 nM. For the same compound, the Emax in data set [1] lay in the range of 80 to 100%. The kinetic solubility at 1.5 h in the data set “physchem” is greater than 10 µM.

As to `CC(C)OC(=O)C1=CN(C(=O)N2CCC[C@@H](N3CCCCC3)C2)CC(C)(C)c2c1[nH]c1ccccc21` [Example 60, 1-methylethyl 3-[(3′R)-1,3′-bipiperidin-1′-ylcarbonyl]-1,1-dimethyl-1,2,3,6-tetrahydroazepino[4,5-b]indole-5-carboxylate], in data set [1] (setting [2]), the EC50 was 1000 to 10000 nM. The Emax in data set [1] lay within 60 to 80%. This compound showed a kinetic solubility at 1.5 h in “physchem” greater than 10 µM.

Regarding `CC(C)OC(=O)C1=CN(C(=O)c2ccccc2C(F)(F)F)CC(C)(C)c2c1[nH]c1ccccc21` [Example 64, 1-methylethyl 1,1-dimethyl-3-{[2-(trifluoromethyl)phenyl]-carbonyl}-1,2,3,6-tetrahydroazepino[4,5-b]indole-5-carboxylate], in data set [1] (setting [2]), the EC50 fell in the range of 10 to 100 nM. Besides, in data set [1], the Emax was greater than 100%. In “physchem”, this compound came in with a kinetic solubility at 1.5 h of 1 to 10 µM (≈ 0.47 to 4.7 µg/mL).

On to `CC(C)OC(=O)C1=CN(C(=O)c2ccccc2Br)CC(C)(C)c2c1[nH]c1ccccc21` [Example 67, 1-methylethyl 3-[(2-bromophenyl)carbonyl]-1,1-dimethyl-1,2,3,6-tetrahydroazepino[4,5-b]indole-5-carboxylate], for which the EC50 in data set [1] (setting [2]) was in the range of 10 to 100 nM. In data set [1], the Emax is greater than 100%. The same compound displayed a solubility (kinetic) at 1.5 h in the data set “physchem” of 1 to 10 µM (≈ 0.481 to 4.81 µg/mL).

Turning to `CC(C)OC(=O)C1=CN(C(=O)c2ccccc2OC(F)(F)F)CC(C)(C)c2c1[nH]c1ccccc21` [Example 70, 1-methylethyl 1,1-dimethyl-3-({2-[(trifluoromethyl)oxy]phenyl}carbonyl)-1,2,3,6-tetrahydroazepino[4,5-b]indole-5-carboxylate], the EC50 in data set [1] (setting [2]) fell in the range of 100 to 1000 nM. Moreover, in data set [1], the Emax was greater than 100%. This compound had a solubility (kinetic) at 1.5 h in “physchem” of 1 to 10 µM (≈ 0.486 to 4.86 µg/mL).

For `CC(C)OC(=O)C1=CN(C(=O)c2cccc(F)c2)CC(C)(C)c2c1[nH]c1ccccc21` [Example 72, 1-methylethyl 3-[(3-fluorophenyl)carbonyl]-1,1-dimethyl-1,2,3,6-tetrahydroazepino[4,5-b]indole-5-carboxylate], the EC50 in data set [1] (setting [2]) is 1 to 10 nM. In addition, the Emax in data set [1] was greater than 100%. Moreover, the solubility (kinetic) at 1.5 h in the data set “physchem” fell in the range of 1 to 10 µM (≈ 0.42 to 4.2 µg/mL).

Take `CC(C)OC(=O)C1=CN(C(=O)c2ccc3c(c2)OCO3)CC(C)(C)c2c1[nH]c1ccccc21` [Example 80, 1-methylethyl 3-(1,3-benzodioxol-5-ylcarbonyl)-1,1-dimethyl-1,2,3,6-tetrahydroazepino[4,5-b]indole-5-carboxylate]: the EC50 in data set [1] (setting [2]) fell in the range of 10 to 100 nM. The Emax in data set [1] is greater than 100%. The same compound showed a kinetic solubility at 1.5 h in the data set “physchem” of 1 to 10 µM (≈ 0.447 to 4.47 µg/mL).

Regarding `CC(C)OC(=O)C1=CN(C(=O)c2cccc(Cl)c2)CC(C)(C)c2c1[nH]c1ccccc21` [Example 81, 1-methylethyl 3-[(3-chlorophenyl)carbonyl]-1,1-dimethyl-1,2,3,6-tetrahydroazepino[4,5-b]indole-5-carboxylate], in data set [1] (setting [2]), the EC50 was in the range of 10 to 100 nM. The Emax in data set [1] was greater than 100%. In “physchem”, this compound showed a kinetic solubility at 1.5 h of 1 to 10 µM (≈ 0.437 to 4.37 µg/mL).

Turning to `CC(C)OC(=O)C1=CN(C(=O)c2ccc(Cl)cc2)CC(C)(C)c2c1[nH]c1ccccc21` [Example 82, 1-methylethyl 3[(4-chlorophenyl)carbonyl]-1,1-dimethyl-1,2,3,6-tetrahydroazepino[4,5-b]indole-5-carboxylate], the EC50 in data set [1] (setting [2]) lay in the range of 10 to 100 nM. Moreover, in data set [1], the Emax was greater than 100%. The solubility (kinetic) at 1.5 h in the data set “physchem” lay within 1 to 10 µM (≈ 0.437 to 4.37 µg/mL).

Turning to `CC(C)OC(=O)C1=CN(C(=O)c2ccc(F)c(C(F)(F)F)c2)CC(C)(C)c2c1[nH]c1ccccc21` [Example 83, 1-methylethyl 3-{[4-fluoro-3-(trifluoromethyl)phenyl]car-bonyl}-1,1-dimethyl-1,2,3,6-tetrahydroazepino[4,5-b]indole-5-carboxylate], in data set [1] (setting [2]), the EC50 lay in the range of 10 to 100 nM. Besides, the Emax in data set [1] was greater than 100%. Further, in the data set “physchem”, the solubility (kinetic) at 1.5 h fell in the range of 1 to 10 µM (≈ 0.488 to 4.88 µg/mL).

With `Cc1cccc(C(=O)N2C=C(C(=O)OC(C)C)c3[nH]c4ccccc4c3C(C)(C)C2)c1` [Example 86, 1-methylethyl 1,1-dimethyl-3-[(3-methylphenyl)carbonyl]-1,2,3,6-tetrahydroazepino[4,5-b]indole-5-carboxylate], in data set [1] (setting [2]), the EC50 is 1 to 10 nM. Besides, the Emax in data set [1] was greater than 100%. Moreover, the kinetic solubility at 1.5 h in “physchem” was in the range of 1 to 10 µM (≈ 0.417 to 4.17 µg/mL).

Consider `CC(C)NC(=O)C1CN(C(=O)c2ccc(F)c(F)c2)CC(C)(C)c2c1[nH]c1ccccc21` (stereo not drawn) [Example 90, 3-[(3,4-difluorophenyl)carbonyl]-1,1-dimethyl-N-(1-methylethyl)-1,2,3,4,5,6-hexahydroazepino[4,5-b]indole-5-carboxamide], for which the EC50 in data set [1] (setting [2]) is 1000 to 10000 nM. Also, the Emax in data set [1] is greater than 100%. This compound came in with a kinetic solubility at 1.5 h in the data set “physchem” greater than 10 µM.

Regarding `CC(C)OC(=O)C1=CN(C(=O)c2ccc(F)c(F)c2)CC(C)(C)c2c1[nH]c1cc(OC(=O)NCCN(C)C)ccc21` [Example 93, 1-methylethyl 3-[(3,4-difluorophenyl)carbonyl]-8-[({[2-(dimethylamino)ethyl]amino}carbonyl)oxy]-1,1-dimethyl-1,2,3,6-tetrahydroazepino[4,5-b]indole-5-carboxylate], in data set [1], the EC50 was 10 to 100 nM and the Emax was greater than 100%. Further, the solubility (kinetic) at 1.5 h in the data set “physchem” was greater than 10 µM.
